In patent EP0970067B1, “(METHYLSULFONYL)PHENYL-2-(5H)-FURANONES WITH OXYGEN LINK AS COX-2 INHIBITORS” (Merck Frosst Canada & Co., priority 1997, dated 1998):

Tests used:
Rat Paw Edema = assay: Rat paw edema assay (carrageenan-induced); type: in vivo, Male Sprague-Dawley rats; conditions: po, 1 hr before subplantar carrageenan, paw volume measured three hr later
Procedure: Male Sprague-Dawley rats (150-200 g) are fasted overnight and are given, po, either vehicle (1% methocel or 5% Tween 80) or a test compound. One hr later, a line is drawn using a permanent marker at the level above the ankle in one hind paw to define the area of the paw to be monitored. The paw volume (V0) is measured using a plethysmometer (Ugo-Basile, Italy) based on the principle of water displacement. The animals are then injected subplantarly with […] of 1% carrageenan solution in saline (FMC Corp, Maine) into the paw using an insulin syringe with a 25-gauge needle (i.e. […] carrageenan per paw). Three hr later, the paw volume (V3) is measured and the increases in paw volume (V3 - VO) are calculated. The animals are sacrificed by CO2 asphyxiation and the absence or presence of stomach lesions scored. Data is compared with the vehicle-control values and percent inhibition calculated. All treatment groups are coded to eliminate observer bias.

human COX-1 = target: T1, human COX-1 (Homo sapiens, UniProt P23219); assay: Whole cell COX-1 assay using CHO transfected cell line (PGE2 radioimmunoassay); type: cell-based; conditions: CHO [hCOX-1] cells; PGE2 synthesis in response to arachidonic acid
T1 construct: expressed in transfected cells; host or cells: CHO [hCOX-1], stably transfected with pCDNAIII
T1 sequence (P23219 24-599): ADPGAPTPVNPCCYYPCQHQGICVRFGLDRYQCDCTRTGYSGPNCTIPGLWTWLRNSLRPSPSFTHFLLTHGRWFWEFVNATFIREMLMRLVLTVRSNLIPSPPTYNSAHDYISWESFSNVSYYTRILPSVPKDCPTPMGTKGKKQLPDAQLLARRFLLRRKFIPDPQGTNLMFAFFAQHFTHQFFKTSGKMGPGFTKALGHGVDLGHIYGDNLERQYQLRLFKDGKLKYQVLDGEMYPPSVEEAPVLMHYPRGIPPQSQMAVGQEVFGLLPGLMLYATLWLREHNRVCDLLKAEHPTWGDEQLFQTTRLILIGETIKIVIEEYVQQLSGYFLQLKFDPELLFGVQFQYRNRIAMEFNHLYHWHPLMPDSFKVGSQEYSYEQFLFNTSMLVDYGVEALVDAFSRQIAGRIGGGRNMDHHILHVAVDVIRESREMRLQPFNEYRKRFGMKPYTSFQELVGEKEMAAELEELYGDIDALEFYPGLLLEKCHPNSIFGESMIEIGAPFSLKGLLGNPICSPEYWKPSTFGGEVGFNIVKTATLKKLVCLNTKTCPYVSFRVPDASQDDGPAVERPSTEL
Procedure: Compounds are tested as inhibitors of cyclooxygenase activity in whole cell cyclooxygenase assays. These assays measure prostaglandin E2 synthesis in response to arachidonic acid, using a radioimmunoassay. Cells used for these assays are chinese hamster ovary (CHO) cell lines which have been stably transfected with an eukaryotic expression vector […] containing either the human Cox-1 or Cox-2 CDNA's. U937 cell microsomes are also used to measure Cox-1 activity.
Chinese hamster ovary (CHO) cell lines which have been stably transfected with an eukaryotic expression vector pCDNAIII containing either the human COX-1 or COX-2 cDNA's are used for the assay. These cell lines are referred to as CHO [hCOX-1] and CHO [hCOX-2], respectively. […]
Compounds of the present invention are inhibitors of cyclooxygenase-2 and are thereby useful in the treatment of cyclooxygenase-2 mediated diseases as enumerated above. […] In the assay, inhibition is determined by measuring the amount of prostaglandin E2 (PGE2) synthesized in the presence of arachidonic acid, cyclooxygenase-1 or cyclooxygenase-2 and a putative inhibitor.

| Compound | ED50 (Rat Paw Edema) [mg/kg] | IC50 (human COX-1) [µM] |
| --- | --- | --- |
| C[C@@H](CF)COC1=C(c2ccc(S(C)(=O)=O)cc2)C(C)(C)OC1=O [Example 10, 3-(((2R)-3-Fluoro-2-methylpropyl)oxy)-5,5-dimethyl-4-(4-methylsulfonylphenyl)-5H-furan-2-one] | 3.2 | 100 |
| C[C@H](CF)COC1=C(c2ccc(S(C)(=O)=O)cc2)C(C)(C)OC1=O [Example 11, 3-(((2S)-3-fluoro-2-methylpropyl)oxy)-5,5-dimethyl-4-(4-methylsulfonylphenyl)-5H-furan-2-one] | 2.3 | > 50 |
